# In PubChem BioAssay AID1963837 (Molecular Pharmacology Branch, DTP, NCI, 2024):
# Tested on: 843126-344-R-J1-PDC complex spheroid viability
# Test: Anticancer human tumor 843126-344-R-J1-PDC patient-derived melanoma cell line growth inhibition [POLQ]
# Settings: curve of first compound; second compound 0.0316 µM
# Procedure, shortened: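 Growth inhibition in 3D: complex spheroids (tumor PDC, HUVEC, MSC) treated with POLQ inhibitor combinations; where Cmax unknown, highest tested concentration 10 microM, except SN-38 at 1 microM.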
row,Compound,IC50
1,COc1cc(C2c3cc4c(cc3C(OC3OC5COC(C)OC5C(O)C3O)C3COC(=O)C23)OCO4)cc(OC)c1O (stereo unspecified) + Cc1cccc(N(C)C(=O)C2C(O)CCN2c2nc(C)cc(C(F)(F)F)c2C#N)c1,8760 nM
2,COc1cccc(OCCCN)c1-c1cc(Nc2cnc(C#N)cn2)n[nH]1 + COC1C(OC(N)=O)C(O)C(Oc2ccc3c(O)c(NC(=O)c4ccc(O)c(CC=C(C)C)c4)c(=O)oc3c2C)OC1(C)C,87.1 nM
3,CC1COCCN1c1cc(C2(S(C)(=N)=O)CC2)nc(-c2ccnc3[nH]ccc23)n1 (stereo unspecified) + COC1C(OC(N)=O)C(O)C(Oc2ccc3c(O)c(NC(=O)c4ccc(O)c(CC=C(C)C)c4)c(=O)oc3c2C)OC1(C)C,> 10000 nM
4,Cn1ncnc1[C@H]1c2n[nH]c(=O)c3cc(F)cc(c23)N[C@@H]1c1ccc(F)cc1 + COC1C(OC(N)=O)C(O)C(Oc2ccc3c(O)c(NC(=O)c4ccc(O)c(CC=C(C)C)c4)c(=O)oc3c2C)OC1(C)C,> 100 nM
5,CC1COCCN1c1cc(-c2ccnn2C)c2ccnc(-c3ccn[nH]3)c2n1 (stereo unspecified) + COC1C(OC(N)=O)C(O)C(Oc2ccc3c(O)c(NC(=O)c4ccc(O)c(CC=C(C)C)c4)c(=O)oc3c2C)OC1(C)C,1040 nM
6,COc1ccc([C@@H](O)c2cc(-c3ncnc4cc(N5CCOCC5)ccc34)c(F)cc2Cl)nn1 + Nc1ccc(C#CCN(C(=O)Cc2ncc(C(F)(F)F)cc2C(F)(F)F)c2ccc(F)cc2)nn1,> 10000 nM

# Same assay, conditions: curve of first compound; second compound 0.1 µM
row,Compound,IC50
1,COc1cc(C2c3cc4c(cc3C(OC3OC5COC(C)OC5C(O)C3O)C3COC(=O)C23)OCO4)cc(OC)c1O (stereo unspecified) + Cc1cccc(N(C)C(=O)C2C(O)CCN2c2nc(C)cc(C(F)(F)F)c2C#N)c1,8260 nM
2,COc1cccc(OCCCN)c1-c1cc(Nc2cnc(C#N)cn2)n[nH]1 + COC1C(OC(N)=O)C(O)C(Oc2ccc3c(O)c(NC(=O)c4ccc(O)c(CC=C(C)C)c4)c(=O)oc3c2C)OC1(C)C,156 nM
3,CC1COCCN1c1cc(C2(S(C)(=N)=O)CC2)nc(-c2ccnc3[nH]ccc23)n1 (stereo unspecified) + COC1C(OC(N)=O)C(O)C(Oc2ccc3c(O)c(NC(=O)c4ccc(O)c(CC=C(C)C)c4)c(=O)oc3c2C)OC1(C)C,> 10000 nM
4,Cn1ncnc1[C@H]1c2n[nH]c(=O)c3cc(F)cc(c23)N[C@@H]1c1ccc(F)cc1 + COC1C(OC(N)=O)C(O)C(Oc2ccc3c(O)c(NC(=O)c4ccc(O)c(CC=C(C)C)c4)c(=O)oc3c2C)OC1(C)C,> 100 nM
5,CC1COCCN1c1cc(-c2ccnn2C)c2ccnc(-c3ccn[nH]3)c2n1 (stereo unspecified) + COC1C(OC(N)=O)C(O)C(Oc2ccc3c(O)c(NC(=O)c4ccc(O)c(CC=C(C)C)c4)c(=O)oc3c2C)OC1(C)C,875 nM
6,COc1ccc([C@@H](O)c2cc(-c3ncnc4cc(N5CCOCC5)ccc34)c(F)cc2Cl)nn1 + Nc1ccc(C#CCN(C(=O)Cc2ncc(C(F)(F)F)cc2C(F)(F)F)c2ccc(F)cc2)nn1,> 10000 nM

# Same assay, conditions: curve of first compound; second compound 0.316 µM
row,Compound,IC50
1,COc1cc(C2c3cc4c(cc3C(OC3OC5COC(C)OC5C(O)C3O)C3COC(=O)C23)OCO4)cc(OC)c1O (stereo unspecified) + Cc1cccc(N(C)C(=O)C2C(O)CCN2c2nc(C)cc(C(F)(F)F)c2C#N)c1,6010 nM
2,COc1cccc(OCCCN)c1-c1cc(Nc2cnc(C#N)cn2)n[nH]1 + COC1C(OC(N)=O)C(O)C(Oc2ccc3c(O)c(NC(=O)c4ccc(O)c(CC=C(C)C)c4)c(=O)oc3c2C)OC1(C)C,135 nM
3,CC1COCCN1c1cc(C2(S(C)(=N)=O)CC2)nc(-c2ccnc3[nH]ccc23)n1 (stereo unspecified) + COC1C(OC(N)=O)C(O)C(Oc2ccc3c(O)c(NC(=O)c4ccc(O)c(CC=C(C)C)c4)c(=O)oc3c2C)OC1(C)C,> 10000 nM
4,Cn1ncnc1[C@H]1c2n[nH]c(=O)c3cc(F)cc(c23)N[C@@H]1c1ccc(F)cc1 + COC1C(OC(N)=O)C(O)C(Oc2ccc3c(O)c(NC(=O)c4ccc(O)c(CC=C(C)C)c4)c(=O)oc3c2C)OC1(C)C,> 100 nM
5,CC1COCCN1c1cc(-c2ccnn2C)c2ccnc(-c3ccn[nH]3)c2n1 (stereo unspecified) + COC1C(OC(N)=O)C(O)C(Oc2ccc3c(O)c(NC(=O)c4ccc(O)c(CC=C(C)C)c4)c(=O)oc3c2C)OC1(C)C,784 nM
6,COc1ccc([C@@H](O)c2cc(-c3ncnc4cc(N5CCOCC5)ccc34)c(F)cc2Cl)nn1 + Nc1ccc(C#CCN(C(=O)Cc2ncc(C(F)(F)F)cc2C(F)(F)F)c2ccc(F)cc2)nn1,> 10000 nM

# Same assay, conditions: curve of first compound; second compound 1 µM
row,Compound,IC50
1,COc1cc(C2c3cc4c(cc3C(OC3OC5COC(C)OC5C(O)C3O)C3COC(=O)C23)OCO4)cc(OC)c1O (stereo unspecified) + Cc1cccc(N(C)C(=O)C2C(O)CCN2c2nc(C)cc(C(F)(F)F)c2C#N)c1,> 10000 nM
2,COc1cccc(OCCCN)c1-c1cc(Nc2cnc(C#N)cn2)n[nH]1 + COC1C(OC(N)=O)C(O)C(Oc2ccc3c(O)c(NC(=O)c4ccc(O)c(CC=C(C)C)c4)c(=O)oc3c2C)OC1(C)C,347 nM
3,CC1COCCN1c1cc(C2(S(C)(=N)=O)CC2)nc(-c2ccnc3[nH]ccc23)n1 (stereo unspecified) + COC1C(OC(N)=O)C(O)C(Oc2ccc3c(O)c(NC(=O)c4ccc(O)c(CC=C(C)C)c4)c(=O)oc3c2C)OC1(C)C,8620 nM
4,Cn1ncnc1[C@H]1c2n[nH]c(=O)c3cc(F)cc(c23)N[C@@H]1c1ccc(F)cc1 + COC1C(OC(N)=O)C(O)C(Oc2ccc3c(O)c(NC(=O)c4ccc(O)c(CC=C(C)C)c4)c(=O)oc3c2C)OC1(C)C,> 100 nM
5,CC1COCCN1c1cc(-c2ccnn2C)c2ccnc(-c3ccn[nH]3)c2n1 (stereo unspecified) + COC1C(OC(N)=O)C(O)C(Oc2ccc3c(O)c(NC(=O)c4ccc(O)c(CC=C(C)C)c4)c(=O)oc3c2C)OC1(C)C,1270 nM
6,COc1ccc([C@@H](O)c2cc(-c3ncnc4cc(N5CCOCC5)ccc34)c(F)cc2Cl)nn1 + Nc1ccc(C#CCN(C(=O)Cc2ncc(C(F)(F)F)cc2C(F)(F)F)c2ccc(F)cc2)nn1,> 10000 nM

# Same assay, conditions: curve of first compound; second compound 3.16 µM
row,Compound,IC50
1,COc1cc(C2c3cc4c(cc3C(OC3OC5COC(C)OC5C(O)C3O)C3COC(=O)C23)OCO4)cc(OC)c1O (stereo unspecified) + Cc1cccc(N(C)C(=O)C2C(O)CCN2c2nc(C)cc(C(F)(F)F)c2C#N)c1,5470 nM
2,COc1cccc(OCCCN)c1-c1cc(Nc2cnc(C#N)cn2)n[nH]1 + COC1C(OC(N)=O)C(O)C(Oc2ccc3c(O)c(NC(=O)c4ccc(O)c(CC=C(C)C)c4)c(=O)oc3c2C)OC1(C)C,290 nM
3,CC1COCCN1c1cc(C2(S(C)(=N)=O)CC2)nc(-c2ccnc3[nH]ccc23)n1 (stereo unspecified) + COC1C(OC(N)=O)C(O)C(Oc2ccc3c(O)c(NC(=O)c4ccc(O)c(CC=C(C)C)c4)c(=O)oc3c2C)OC1(C)C,9280 nM
4,Cn1ncnc1[C@H]1c2n[nH]c(=O)c3cc(F)cc(c23)N[C@@H]1c1ccc(F)cc1 + COC1C(OC(N)=O)C(O)C(Oc2ccc3c(O)c(NC(=O)c4ccc(O)c(CC=C(C)C)c4)c(=O)oc3c2C)OC1(C)C,> 100 nM
5,CC1COCCN1c1cc(-c2ccnn2C)c2ccnc(-c3ccn[nH]3)c2n1 (stereo unspecified) + COC1C(OC(N)=O)C(O)C(Oc2ccc3c(O)c(NC(=O)c4ccc(O)c(CC=C(C)C)c4)c(=O)oc3c2C)OC1(C)C,918 nM
6,COc1ccc([C@@H](O)c2cc(-c3ncnc4cc(N5CCOCC5)ccc34)c(F)cc2Cl)nn1 + Nc1ccc(C#CCN(C(=O)Cc2ncc(C(F)(F)F)cc2C(F)(F)F)c2ccc(F)cc2)nn1,> 10000 nM

# Same assay, conditions: curve of first compound; second compound 10 µM
row,Compound,IC50
1,COc1cc(C2c3cc4c(cc3C(OC3OC5COC(C)OC5C(O)C3O)C3COC(=O)C23)OCO4)cc(OC)c1O (stereo unspecified) + Cc1cccc(N(C)C(=O)C2C(O)CCN2c2nc(C)cc(C(F)(F)F)c2C#N)c1,3780 nM
